According to the NIST ThermoML archive (doi:10.1021/je800998u):
Numbers after ± are expanded uncertainties.

Assay: Molar enthalpy of transition or fusion
Settings: Adiabatic calorimetry

Molar enthalpy of transition or fusion (Crystal 1): 2.71 ± 0.055 kcal/mol
Molar enthalpy of transition or fusion (Crystal 2): 0.43 ± 0.0454 kcal/mol
SMILES: CC(C)COCC(C)C [diisobutyl ether]
